Test results published in ChEMBL document CHEMBL3112450, “Synthesis and in vitro antitumor evaluation of primary amine substituted quinazoline linked benzimidazole” (Bioorg Med Chem Lett, 2014).

What was measured:
Assay type in all cases: functional
CCRF-CEM = assay: Cytotoxicity against human CCRF-CEM cells after 48 hrs by SRB assay
T47D [1] = assay: Cytotoxicity against human T47D cells assessed as cell growth at 10^-7 M after 48 hrs by SRB assay; conditions: read-out: Activity
SK-MEL-2 [2] = assay: Cytotoxicity against human SK-MEL-2 cells assessed as cell growth at 10^-6 M after 48 hrs by SRB assay; conditions: SK-MEL-2, 48 h, read-out: Activity
SK-OV-3 = assay: Cytotoxicity against human SKOV3 cells after 48 hrs by SRB assay; conditions: SK-OV-3, 48 h
MDA-MB-435 = assay: Cytotoxicity against human MDA-MB-435 cells assessed as cell growth at 10^-8 M after 48 hrs by SRB assay; conditions: MDA-MB-435, 48 h, read-out: Activity
786-0 [3] = assay: Cytotoxicity against human 786-0 cells assessed as cell growth at 10^-8 M after 48 hrs by SRB assay; conditions: 786-0, 48 h, read-out: Activity
DU-145 = assay: Cytotoxicity against human DU145 cells assessed as cell growth at 10^-4 M after 48 hrs by SRB assay; conditions: DU-145, 48 h, read-out: Activity
MDA-MB-231 = assay: Cytotoxicity against human MDA-MB-231 cells assessed as cell growth at 10^-4 M after 48 hrs by SRB assay; conditions: MDA-MB-231, 48 h, read-out: Activity
SK-MEL-2 [4] = assay: Cytotoxicity against human SK-MEL-2 cells assessed as cell growth at 10^-8 M after 48 hrs by SRB assay; conditions: SK-MEL-2, 48 h, read-out: Activity
RPMI-8226 [5] = assay: Cytotoxicity against human RPMI8226 cells assessed as cell growth at 10^-7 M after 48 hrs by SRB assay; conditions: RPMI-8226, 48 h, read-out: Activity
HL-60(TB) = assay: Cytotoxicity against human HL-60(TB) cells after 48 hrs by SRB assay; conditions: HL-60, 48 h
SF-295 = assay: Cytotoxicity against human SF295 cells assessed as cell growth at 10^-8 M after 48 hrs by SRB assay; conditions: SF-295, 48 h, read-out: Activity
HCT-15 = assay: Cytotoxicity against human HCT15 cells assessed as cell growth at 10^-4 M after 48 hrs by SRB assay; conditions: HCT-15, 48 h, read-out: Activity
T47D [6] = assay: Cytotoxicity against human T47D cells after 48 hrs by SRB assay
SN12C [7] = assay: Cytotoxicity against human SN12C cells assessed as cell growth at 10^-7 M after 48 hrs by SRB assay; conditions: read-out: Activity
NCI-H460 = assay: Cytotoxicity against human NCI-H460 cells assessed as cell growth at 10^-7 M after 48 hrs by SRB assay; conditions: NCI-H460, 48 h, read-out: Activity
RPMI-8226 [8] = assay: Cytotoxicity against human RPMI8226 cells after 48 hrs by SRB assay; conditions: RPMI-8226, 48 h
MDA-MB-468 [9] = assay: Cytotoxicity against human MDA-MB-468 cells assessed as cell growth at 10^-4 M after 48 hrs by SRB assay; conditions: MDA-MB-468, 48 h, read-out: Activity
SK-MEL-2 [10] = assay: Cytotoxicity against human SK-MEL-2 cells assessed as cell growth at 10^-7 M after 48 hrs by SRB assay; conditions: SK-MEL-2, 48 h, read-out: Activity
BT-549 [11] = assay: Cytotoxicity against human BT549 cells assessed as cell growth at 10^-6 M after 48 hrs by SRB assay; conditions: BT-549, 48 h, read-out: Activity
BT-549 [12] = assay: Cytotoxicity against human BT549 cells after 48 hrs by SRB assay; conditions: BT-549, 48 h
[13] = Cytotoxicity against human NCI-ADR-RES cells assessed as cell growth at 10^-4 M after 48 hrs by SRB assay; conditions: read-out: Activity
[14] = Cytotoxicity against human Hs578T cells assessed as cell growth at 10^-8 M after 48 hrs by SRB assay; conditions: Hs-578T, read-out: Activity
MOLT-4 [15] = assay: Cytotoxicity against human MOLT4 cells assessed as cell growth at 10^-4 M after 48 hrs by SRB assay; conditions: MOLT-4, 48 h, read-out: Activity
NCI-H322M = assay: Cytotoxicity against human NCI-H322M cells assessed as cell growth at 10^-8 M after 48 hrs by SRB assay; conditions: read-out: Activity
SN12C [16] = assay: Cytotoxicity against human SN12C cells assessed as cell growth at 10^-6 M after 48 hrs by SRB assay; conditions: read-out: Activity
[17] = Cytotoxicity against human OVCAR4 cells assessed as cell growth at 10^-6 M after 48 hrs by SRB assay; conditions: OVCAR-4, 48 h, read-out: Activity
NCI-H23 [18] = assay: Cytotoxicity against human NCI-H23 cells assessed as cell growth at 10^-6 M after 48 hrs by SRB assay; conditions: NCI-H23, 48 h, read-out: Activity
MCF7 = assay: Cytotoxicity against human MCF7 cells after 48 hrs by SRB assay; conditions: MCF7, 48 h
[19] = Cytotoxicity against human NCI-ADR-RES cells after 48 hrs by SRB assay
MDA-MB-468 [20] = assay: Cytotoxicity against human MDA-MB-468 cells assessed as cell growth at 10^-8 M after 48 hrs by SRB assay; conditions: MDA-MB-468, 48 h, read-out: Activity
NCI-H23 [21] = assay: Cytotoxicity against human NCI-H23 cells assessed as cell growth at 10^-4 M after 48 hrs by SRB assay; conditions: NCI-H23, 48 h, read-out: Activity
TK-10 = assay: Cytotoxicity against human TK10 cells assessed as cell growth at 10^-7 M after 48 hrs by SRB assay; conditions: TK-10, 48 h, read-out: Activity
786-0 [22] = assay: Cytotoxicity against human 786-0 cells assessed as cell growth at 10^-6 M after 48 hrs by SRB assay; conditions: 786-0, 48 h, read-out: Activity
MOLT-4 [23] = assay: Cytotoxicity against human MOLT4 cells assessed as cell growth at 10^-6 M after 48 hrs by SRB assay; conditions: MOLT-4, 48 h, read-out: Activity
[24] = Cytotoxicity against human Hs578T cells after 48 hrs by SRB assay; conditions: Hs-578T
SF-539 = assay: Cytotoxicity against human SF539 cells after 48 hrs by SRB assay; conditions: SF-539, 48 h
K562 = assay: Cytotoxicity against human K562 cells assessed as cell growth at 10^-6 M after 48 hrs by SRB assay; conditions: K562, 48 h, read-out: Activity
SNB-19 = assay: Cytotoxicity against human SNB19 cells after 48 hrs by SRB assay; conditions: SNB-19, 48 h
Malme-3M = assay: Cytotoxicity against human MALME-3M cells assessed as cell growth at 10^-4 M after 48 hrs by SRB assay; conditions: read-out: Activity

With `C=CCn1c(C)nc2cc(Nc3nc(Nc4ccc5nc(C)n(CC=C)c5c4)c4ccccc4n3)ccc21` the GI50 (CCRF-CEM) was 0.296 µM, the LC50 (CCRF-CEM) was over 100 µM and the TGI (CCRF-CEM) was 0.769 µM. It also gave a growth at 0.1 µM (T47D [1]) of 94%, a growth at 1 µM (SK-MEL-2 [2]) of 74% and a GI50 (SK-OV-3) of 1.9 µM. For the same molecule, the TGI (SK-OV-3) was 3.77 µM, the growth at 0.01 µM (MDA-MB-435) was 97% and the growth at 0.01 µM (786-0 [3]) was 99%. For the same molecule, the growth at 100 µM (DU-145) was -98%, the growth at 100 µM (MDA-MB-231) was -46% and the growth at 0.01 µM (SK-MEL-2 [4]) was 96%. It also gave a growth at 0.1 µM (RPMI-8226 [5]) of 100%, a GI50 (HL-60(TB)) of 1.78 µM and a TGI (HL-60(TB)) of 3.65 µM. It also gave a growth at 0.01 µM (SF-295) of 90%, a growth at 100 µM (HCT-15) of 2% and a GI50 (T47D [6]) of 0.28 µM. For the same molecule, the LC50 (T47D [6]) was over 100 µM, the TGI (T47D [6]) was 0.909 µM and the growth at 0.1 µM (SN12C [7]) was 92%. It also gave a growth at 0.1 µM (NCI-H460) of 103%, a GI50 (RPMI-8226 [8]) of 1.24 µM and an LC50 (RPMI-8226 [8]) of over 100 µM. The TGI (RPMI-8226 [8]) was 3.93 µM, the growth at 100 µM (MDA-MB-468 [9]) was -2% and the growth at 0.1 µM (SK-MEL-2 [10]) was 98%. For the same molecule, the growth at 1 µM (BT-549 [11]) was 93%, the GI50 (BT-549 [12]) was 1.68 µM and the TGI (BT-549 [12]) was 3.1 µM. The growth at 100 µM [13] was -24%, the growth at 0.01 µM [14] was 90% and the growth at 100 µM (MOLT-4 [15]) was -18%. The growth at 0.01 µM (NCI-H322M) was 92%, the growth at 1 µM (SN12C [16]) was 65% and the growth at 1 µM [17] was -16%. For the same molecule, the growth at 1 µM (NCI-H23 [18]) was 100%, the GI50 (MCF7) was 0.209 µM and the GI50 [19] was 1.84 µM. For the same molecule, the LC50 [19] was over 100 µM, the TGI [19] was 4.43 µM and the growth at 0.01 µM (MDA-MB-468 [20]) was 106%. For the same molecule, the growth at 100 µM (NCI-H23 [21]) was -28%, the growth at 0.1 µM (TK-10) was 100% and the growth at 1 µM (786-0 [22]) was -78%. The growth at 1 µM (MOLT-4 [23]) was -23%, the GI50 [24] was 2.16 µM and the LC50 [24] was over 100 µM. For the same molecule, the TGI [24] was 5.16 µM, the GI50 (SF-539) was 1.1 µM and the LC50 (concentration giving 50% net cell kill) (SF-539) was 4.79 µM. The TGI (SF-539) was 2.3 µM, the growth at 1 µM (K562) was -45% and the GI50 (SNB-19) was 1.08 µM. It also gave a TGI (SNB-19) of 2.62 µM and a growth at 100 µM (Malme-3M) of -42%.
For `C=CCn1c(C)nc2ccc(Nc3nc(Nc4ccc(F)cc4)nc4ccccc34)cc21`, the GI50 (CCRF-CEM) was 3.01 µM, the LC50 (CCRF-CEM) was over 100 µM and the TGI (CCRF-CEM) was 11.7 µM. The growth at 0.1 µM (T47D [1]) was 85%, the growth at 1 µM (SK-MEL-2 [2]) was 96% and the GI50 (SK-OV-3) was 1.93 µM. It also gave a TGI (SK-OV-3) of 3.74 µM, a growth at 0.01 µM (MDA-MB-435) of 97% and a growth at 0.01 µM (786-0 [3]) of 93%. It also gave a growth at 100 µM (DU-145) of -84%, a growth at 100 µM (MDA-MB-231) of -37% and a growth at 0.01 µM (SK-MEL-2 [4]) of 98%. For the same molecule, the growth at 0.1 µM (RPMI-8226 [5]) was 103%, the GI50 (HL-60(TB)) was 4.95 µM and the LC50 (HL-60(TB)) was over 100 µM. For the same molecule, the TGI (HL-60(TB)) was 23.3 µM, the growth at 0.01 µM (SF-295) was 84% and the growth at 100 µM (HCT-15) was -38%. For the same molecule, the GI50 (T47D [6]) was 1.7 µM, the LC50 (T47D [6]) was over 100 µM and the TGI (T47D [6]) was 4.23 µM. It also gave a growth at 0.1 µM (SN12C [7]) of 96%, a growth at 0.1 µM (NCI-H460) of 103% and a GI50 (RPMI-8226 [8]) of 1.85 µM. For the same molecule, the LC50 (RPMI-8226 [8]) was over 100 µM, the TGI (RPMI-8226 [8]) was 4.57 µM and the growth at 100 µM (MDA-MB-468 [9]) was -37%. It also gave a growth at 0.1 µM (SK-MEL-2 [10]) of 101%, a growth at 1 µM (BT-549 [11]) of 82% and a GI50 (BT-549 [12]) of 3.35 µM. For the same molecule, the LC50 (BT-549 [12]) was 73.1 µM, the TGI (BT-549 [12]) was 18.1 µM and the growth at 100 µM [13] was -15%. It also gave a growth at 0.01 µM [14] of 92%, a growth at 100 µM (MOLT-4 [15]) of -48% and a growth at 0.01 µM (NCI-H322M) of 87%. It also gave a growth at 1 µM (SN12C [16]) of 81%, a growth at 1 µM [17] of 85% and a growth at 1 µM (NCI-H23 [18]) of 88%. It also gave a GI50 (MCF7) of 1.48 µM, a TGI (MCF7) of 3.44 µM and a GI50 [19] of 4.01 µM. The LC50 [19] was over 100 µM, the TGI [19] was 37.7 µM and the growth at 0.01 µM (MDA-MB-468 [20]) was 78%. For the same molecule, the growth at 100 µM (NCI-H23 [21]) was -39%, the growth at 0.1 µM (TK-10) was 104% and the growth at 1 µM (786-0 [22]) was 96%. It also gave a growth at 1 µM (MOLT-4 [23]) of 73%, a GI50 [24] of 9.83 µM and an LC50 [24] of over 100 µM. It also gave a TGI [24] of 56.7 µM, a GI50 (SF-539) of 12.3 µM and an LC50 (concentration giving 50% net cell kill) (SF-539) of 53.9 µM. For the same molecule, the TGI (SF-539) was 25.7 µM, the growth at 1 µM (K562) was 96% and the GI50 (SNB-19) was 9 µM. The TGI (SNB-19) was 23.8 µM, the CC50 (SNB-19; read-out: LC50 (the source's name)) was 58.6 µM and the growth at 100 µM (Malme-3M) was -51%.
